According to PubChem BioAssay AID330 (DTP/NCI, 2004):
“And” between values parts separate entries of the source, which are not always exact repeats. Identical values can stand only once. Toxic doses and inconclusive results are not listed. The calls were made as follows: active = survival T/C of 150% or more; inactive = T/C below 125% in these data.

Test system: P388 leukemia ip, CD2F1 mice, survival T/C
Assay: NCI In Vivo Anticancer Drug Screen. Data for tumor model P388 Leukemia (intraperitoneal) in CD2F1 (CDF1) mice
Settings: endpoint: median survival time, higher = longer survival
Outline: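 Mice carrying the transplanted tumor received test compound or vehicle. Survival was recorded in each group, and the value is the treated-group measurement divided by that of the vehicle-treated control group.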

[1] = dose: 25.0 mg/kg/injection, schedule: Q01DX009 (ip), vehicle: saline
[2] = dose: 50.0 mg/kg/injection, schedule: Q01DX009 (ip), vehicle: saline
[3] = dose: 100.0 mg/kg/injection, schedule: Q01DX001 (ip), vehicle: Klucel (hydroxypropylcellulose) (HPC)
[4] = dose: 200.0 mg/kg/injection, schedule: Q01DX001 (ip), vehicle: Klucel (hydroxypropylcellulose) (HPC)
[5] = dose: 400.0 mg/kg/injection, schedule: Q01DX001 (ip), vehicle: Klucel (hydroxypropylcellulose) (HPC)
[6] = dose: 60.0 mg/kg/injection, schedule: Q01DX005 (ip), vehicle: saline with Tween-80
[7] = dose: 120.0 mg/kg/injection, schedule: Q01DX005 (ip), vehicle: saline with Tween-80
[8] = dose: 240.0 mg/kg/injection, schedule: Q01DX005 (ip), vehicle: saline with Tween-80
[9] = dose: 6.25 mg/kg/injection, schedule: Q01DX009 (ip), vehicle: saline with Tween-80
[10] = dose: 12.5 mg/kg/injection, schedule: Q01DX009 (ip), vehicle: saline with Tween-80
[11] = dose: 25.0 mg/kg/injection, schedule: Q01DX009 (ip), vehicle: saline with Tween-80
[12] = dose: 50.0 mg/kg/injection, schedule: Q01DX009 (ip), vehicle: saline with Tween-80
[13] = dose: 100.0 mg/kg/injection, schedule: Q04DX003 (ip), vehicle: Klucel (hydroxypropylcellulose) (HPC)
[14] = dose: 200.0 mg/kg/injection, schedule: Q04DX003 (ip), vehicle: Klucel (hydroxypropylcellulose) (HPC)
[15] = dose: 100.0 mg/kg/injection, schedule: Q01DX001 (ip), vehicle: other
[16] = dose: 200.0 mg/kg/injection, schedule: Q01DX001 (ip), vehicle: other
[17] = dose: 400.0 mg/kg/injection, schedule: Q01DX001 (ip), vehicle: other
[18] = dose: 60.0 mg/kg/injection, schedule: Q01DX005 (ip), vehicle: Klucel (hydroxypropylcellulose) (HPC)
[19] = dose: 120.0 mg/kg/injection, schedule: Q01DX005 (ip), vehicle: Klucel (hydroxypropylcellulose) (HPC)
[20] = dose: 240.0 mg/kg/injection, schedule: Q01DX005 (ip), vehicle: Klucel (hydroxypropylcellulose) (HPC)
[21] = dose: 100.0 mg/kg/injection, schedule: Q01DX009 (ip), vehicle: saline with Tween-80

Measured: T/C

CCN(CC)CCCC(C)Nc1ncnc2ccc(OC)cc12 (stereo unspecified)
inactive: dose: 50.0 mg/kg/injection, schedule: Q01DX005 (ip), vehicle: saline 94 % of control | dose: 100.0 mg/kg/injection, schedule: Q01DX005 (ip), vehicle: saline 99 % of control | dose: 200.0 mg/kg/injection, schedule: Q01DX005 (ip), vehicle: saline 94 % of control

CCOP(=O)(CC(=O)c1cc2ccccc2[nH]1)OCC
inactive: dose: 12.5 mg/kg/injection, schedule: Q01DX009 (ip), vehicle: saline 100 % of control | [1] 92 % of control | [2] 106 % of control and 95 % of control | dose: 200.0 mg/kg/injection, schedule: Q01DX009 (ip), vehicle: saline 97 % of control

c1ccc(SCc2ccc3c(c2)OCO3)cc1
inactive: [3] 107 % of control | [4] 102 % of control | [5] 100 % of control

O=C(/C=C/C(=O)Nc1ccc(F)cc1F)Nc1ccc(F)cc1F
inactive: [6] 94 % of control and 95 % of control | [7] 98 % of control | [8] 104 % of control and 97 % of control

OC1CC2c3ccccc3C1C1CCCCN21 (stereo unspecified)
inactive: dose: 12.5 mg/kg/injection, schedule: Q04DX002 (ip), vehicle: saline 106 % of control | dose: 25.0 mg/kg/injection, schedule: Q04DX002 (ip), vehicle: saline 109 % of control | dose: 50.0 mg/kg/injection, schedule: Q04DX002 (ip), vehicle: saline 106 % of control

CCCCNc1ccc(Nc2ccccc2)cc1
inactive: [9] 95 % of control | [10] 108 % of control | [11] 115 % of control | [12] 121 % of control

CCCCCCCCCCCCCCCCCCSc1c(OC)c(OC(C)=O)c(OC)c(OC)c1OC(C)=O
inactive: dose: 4.0 mg/kg/injection, schedule: Q01DX009 (ip), vehicle: Klucel (hydroxypropylcellulose) (HPC) 87 % of control | dose: 8.0 mg/kg/injection, schedule: Q01DX009 (ip), vehicle: Klucel (hydroxypropylcellulose) (HPC) 98 % of control | dose: 16.0 mg/kg/injection, schedule: Q01DX009 (ip), vehicle: Klucel (hydroxypropylcellulose) (HPC) 96 % of control | dose: 32.0 mg/kg/injection, schedule: Q01DX009 (ip), vehicle: Klucel (hydroxypropylcellulose) (HPC) 98 % of control

CS(=O)(=O)OC1COCC1OS(C)(=O)=O (stereo unspecified)
inactive: [3] 95 % of control | [13] 99 % of control | [4] 95 % of control | [14] 100 % of control | [5] 100 % of control | dose: 400.0 mg/kg/injection, schedule: Q04DX003 (ip), vehicle: Klucel (hydroxypropylcellulose) (HPC) 107 % of control

O=C1C=C(N2C3C4CCC(C4)C32)C(=O)C=C1c1ccccc1 (stereo unspecified)
inactive: [15] 102 % of control | [16] 109 % of control | [17] 111 % of control

OC1CN(Cc2ccccc2)C[C@@H]1O (stereo partly specified)
inactive: dose: 60.0 mg/kg/injection, schedule: Q01DX005 (ip), vehicle: saline 100 % of control | dose: 120.0 mg/kg/injection, schedule: Q01DX005 (ip), vehicle: saline 96 % of control

COc1ccc(N/C=C2\C(=O)CCc3c2oc2cc(Cl)c(O)c(Cl)c32)cc1
inactive: dose: 15.0 mg/kg/injection, schedule: Q01DX005 (ip), vehicle: Klucel (hydroxypropylcellulose) (HPC) 93 % of control | dose: 30.0 mg/kg/injection, schedule: Q01DX005 (ip), vehicle: Klucel (hydroxypropylcellulose) (HPC) 99 % of control | [18] 107 % of control and 93 % of control | [19] 102 % of control

COc1cc([N+](=O)[O-])c(S(=O)(=O)O)cc1N
inactive: [6] 99 % of control | [7] 94 % of control | [8] 93 % of control

COc1ccc(SS(=O)c2ccc(C)cc2)cc1 (stereo unspecified)
inactive: [15] 105 % of control | [16] 106 % of control | [17] 111 % of control

O=[N+]([O-])c1ccc2c(c1)Oc1cccnc1[Se]2
inactive: [18] 105 % of control | [19] 95 % of control | [20] 90 % of control

COC(=O)/C=C(\C)NC(=NC(C)(C)C)c1ccccc1
inactive: [12] 98 % of control | [21] 101 % of control | dose: 200.0 mg/kg/injection, schedule: Q01DX009 (ip), vehicle: saline with Tween-80 94 % of control

CC(=N\N)/C(C)=N/N
inactive: [11] 100 % of control | [12] 121 % of control

[I][Hg][CH2]C1COCC([CH2][Hg][I])O1.[I][Hg][CH2]C1COCC([CH2][Hg][I])O1 (stereo unspecified)
inactive: dose: 3.13 mg/kg/injection, schedule: Q01DX009 (ip), vehicle: saline with Tween-80 109 % of control | dose: 3.13 mg/kg/injection, schedule: Q04DX003 (ip), vehicle: saline with Tween-80 109 % of control | [9] 113 % of control | dose: 6.25 mg/kg/injection, schedule: Q04DX003 (ip), vehicle: saline with Tween-80 86 % of control | [10] 118 % of control | dose: 12.5 mg/kg/injection, schedule: Q04DX003 (ip), vehicle: saline with Tween-80 100 % of control

O=c1cc(-c2ccc(Cl)cc2)c(-c2ccc(Cl)cc2)nn1CCO
inactive: dose: 100.0 mg/kg/injection, schedule: Q04DX002 (ip), vehicle: saline with Tween-80 95 % of control | dose: 200.0 mg/kg/injection, schedule: Q04DX002 (ip), vehicle: saline with Tween-80 95 % of control | dose: 400.0 mg/kg/injection, schedule: Q04DX002 (ip), vehicle: saline with Tween-80 89 % of control

COc1cc2c(cc1OC)C(CN)C2 (stereo unspecified)
inactive: [1] 111 % of control | [2] 109 % of control | dose: 100.0 mg/kg/injection, schedule: Q01DX009 (ip), vehicle: saline 119 % of control

CCN(CC)N=Nc1ccccc1-c1nc(N)c2ccccc2n1
inactive: dose: 12.5 mg/kg/injection, schedule: Q04DX003 (ip), vehicle: Klucel (hydroxypropylcellulose) (HPC) 105 % of control | dose: 25.0 mg/kg/injection, schedule: Q04DX003 (ip), vehicle: Klucel (hydroxypropylcellulose) (HPC) 102 % of control and 103 % of control and 94 % of control | dose: 50.0 mg/kg/injection, schedule: Q04DX003 (ip), vehicle: Klucel (hydroxypropylcellulose) (HPC) 98 % of control and 111 % of control and 91 % of control | [13] 102 % of control (2×) and 94 % of control | [14] 106 % of control and 119 % of control and 86 % of control

Oc1ccc(CCNCc2ccc3c(c2)OCO3)cc1O
inactive: dose: 100.0 mg/kg/injection, schedule: Q04DX002 (ip), vehicle: Klucel (hydroxypropylcellulose) (HPC) 99 % of control | dose: 200.0 mg/kg/injection, schedule: Q04DX002 (ip), vehicle: Klucel (hydroxypropylcellulose) (HPC) 94 % of control

O=C1C2CCC(C2)C1C(O)(C(F)(F)F)C(F)(F)F (stereo unspecified)
inactive: [11] 109 % of control | dose: 25.0 mg/kg/injection, schedule: Q04DX003 (ip), vehicle: saline with Tween-80 109 % of control | [12] 100 % of control | dose: 50.0 mg/kg/injection, schedule: Q04DX003 (ip), vehicle: saline with Tween-80 100 % of control | [21] 104 % of control | dose: 100.0 mg/kg/injection, schedule: Q04DX003 (ip), vehicle: saline with Tween-80 90 % of control

CC(C)CCCC(C)C1CCC2C3CCC4C5Oc6ccccc6N=C5CCC4(C)C3CCC12C (stereo unspecified)
inactive: [18] 92 % of control | [19] 97 % of control | [20] 93 % of control
